Data published in ChEMBL document CHEMBL3792297, “Studies on phenothiazines: New microtubule-interacting compounds with phenothiazine A-ring as potent antineoplastic agents” (Bioorg Med Chem, 2016).

Experiments:
Type in all cases: functional
[1] = Growth inhibition of human UACC257 cells at 10 uM after 48 hrs by SRB assay relative to control; conditions: UACC-257, 48 h, read-out: GI
[2] = system: SK-MEL-2; test: Growth inhibition of human SK-MEL-2 cells at 10 uM after 48 hrs by SRB assay relative to control; conditions: SK-MEL-2, 48 h, read-out: GI
[3] = Growth inhibition of human Hs 578T cells at 10 uM after 48 hrs by SRB assay relative to control; conditions: read-out: GI
[4] = Growth inhibition of human IGROV1 cells at 10 uM after 48 hrs by SRB assay relative to control; conditions: IGROV-1, 48 h, read-out: GI
[5] = system: SK-MEL-5; test: Growth inhibition of human SK-MEL-5 cells at 10 uM after 48 hrs by SRB assay relative to control; conditions: SK-MEL-5, 48 h, read-out: GI
[6] = Growth inhibition of human HL-60(TB) cells at 10 uM after 48 hrs by SRB assay relative to control; conditions: HL-60, 48 h, read-out: GI
[7] = Growth inhibition of human SF268 cells at 10 uM after 48 hrs by SRB assay relative to control; conditions: SF-268, 48 h, read-out: GI
[8] = system: MDA-MB-468; test: Growth inhibition of human MDA-MB-468 cells at 10 uM after 48 hrs by SRB assay relative to control; conditions: MDA-MB-468, 48 h, read-out: GI
[9] = system: ACHN; test: Growth inhibition of human ACHN cells at 10 uM after 48 hrs by SRB assay relative to control; conditions: read-out: GI
[10] = Growth inhibition of human SW620 cells at 10 uM after 48 hrs by SRB assay relative to control; conditions: SW-620, 48 h, read-out: GI
[11] = system: SN12C; test: Growth inhibition of human SN12C cells at 10 uM after 48 hrs by SRB assay relative to control; conditions: read-out: GI
[12] = Growth inhibition of human NCI-ADR-RES cells at 10 uM after 48 hrs by SRB assay relative to control; conditions: read-out: GI
[13] = system: SK-MEL-28; test: Growth inhibition of human SK-MEL-28 cells at 10 uM after 48 hrs by SRB assay relative to control; conditions: SK-MEL-28, 48 h, read-out: GI
[14] = Growth inhibition of human Caki1 cells at 10 uM after 48 hrs by SRB assay relative to control; conditions: CAKI-1, 48 h, read-out: GI
[15] = Growth inhibition of human HCT116 cells at 10 uM after 48 hrs by SRB assay relative to control; conditions: HCT-116, 48 h, read-out: GI
[16] = Growth inhibition of human OVCAR8 cells at 10 uM after 48 hrs by SRB assay relative to control; conditions: OVCAR-8, 48 h, read-out: GI
[17] = system: MDA-MB-435; test: Growth inhibition of human MDA-MB-435 cells at 10 uM after 48 hrs by SRB assay relative to control; conditions: MDA-MB-435, 48 h, read-out: GI
[18] = Growth inhibition of human HCT15 cells at 10 uM after 48 hrs by SRB assay relative to control; conditions: HCT-15, 48 h, read-out: GI
[19] = Growth inhibition of human SNB19 cells at 10 uM after 48 hrs by SRB assay relative to control; conditions: SNB-19, 48 h, read-out: GI
[20] = system: HT-29; test: Growth inhibition of human HT-29 cells at 10 uM after 48 hrs by SRB assay relative to control; conditions: HT-29, 48 h, read-out: GI
[21] = Growth inhibition of human OVCAR3 cells after 48 hrs by SRB assay; conditions: OVCAR-3, 48 h
[22] = Growth inhibition of human HCC2998 cells after 48 hrs by SRB assay; conditions: HCC 2998, 48 h
[23] = Growth inhibition of human SW620 cells after 48 hrs by SRB assay; conditions: SW-620, 48 h
[24] = Growth inhibition of human OVCAR8 cells after 48 hrs by SRB assay; conditions: OVCAR-8, 48 h
[25] = Growth inhibition of human OVCAR4 cells after 48 hrs by SRB assay; conditions: OVCAR-4, 48 h
[26] = Growth inhibition of human HOP92 cells after 48 hrs by SRB assay; conditions: HOP-92, 48 h
[27] = Growth inhibition of human HCT15 cells after 48 hrs by SRB assay; conditions: HCT-15, 48 h
[28] = Growth inhibition of human UACC62 cells after 48 hrs by SRB assay; conditions: UACC-62, 48 h
[29] = Growth inhibition of human SF295 cells after 48 hrs by SRB assay; conditions: SF-295, 48 h
[30] = Growth inhibition of human SF268 cells after 48 hrs by SRB assay; conditions: SF-268, 48 h
[31] = Growth inhibition of human RXF393 cells after 48 hrs by SRB assay; conditions: RXF 393, 48 h
[32] = system: A549; test: Growth inhibition of human A549 cells after 48 hrs by SRB assay; conditions: A549, 48 h
[33] = system: HT-29; test: Growth inhibition of human HT-29 cells after 48 hrs by SRB assay; conditions: HT-29, 48 h
[34] = system: SR; test: Growth inhibition of human SR cells after 48 hrs by SRB assay
[35] = Growth inhibition of human RPMI8226 cells after 48 hrs by SRB assay; conditions: RPMI-8226, 48 h
[36] = system: NCI-H522; test: Growth inhibition of human NCI-H522 cells after 48 hrs by SRB assay; conditions: NCI-H522, 48 h
[37] = system: MDA-MB-435; test: Growth inhibition of human MDA-MB-435 cells after 48 hrs by SRB assay; conditions: MDA-MB-435, 48 h
[38] = Growth inhibition of human SKOV3 cells after 48 hrs by SRB assay; conditions: SK-OV-3, 48 h
[39] = Growth inhibition of human UO31 cells after 48 hrs by SRB assay; conditions: UO-31, 48 h
[40] = Growth inhibition of human IGROV1 cells after 48 hrs by SRB assay; conditions: IGROV-1, 48 h
[41] = Growth inhibition of human MOLT4 cells after 48 hrs by SRB assay; conditions: MOLT-4, 48 h
[42] = system: CCRF-CEM; test: Growth inhibition of human CCRF-CEM cells after 48 hrs by SRB assay
[43] = Growth inhibition of human SKOV3 cells at 10 uM after 48 hrs by SRB assay relative to control; conditions: SK-OV-3, 48 h, read-out: GI
[44] = Growth inhibition of human HL-60(TB) cells after 48 hrs by SRB assay; conditions: HL-60, 48 h
[45] = Growth inhibition of human SF539 cells after 48 hrs by SRB assay; conditions: SF-539, 48 h

SMILES: O/N=C(/c1ccc2c(c1)Sc1ccccc1N2)c1c[nH]c2ccccc12
- inhibition of growth at 10 µM [1]: 18%
- inhibition of growth at 10 µM [2]: 57%
- inhibition of growth at 10 µM [3]: 40%
- inhibition of growth at 10 µM [4]: 44%
- inhibition of growth at 10 µM [5]: 40%
- inhibition of growth at 10 µM [6]: 87%
- inhibition of growth at 10 µM [7]: 44%
- inhibition of growth at 10 µM [8]: 63%
- inhibition of growth at 10 µM [9]: 17%
- inhibition of growth at 10 µM [10]: 74%
- inhibition of growth at 10 µM [11]: 27%
- inhibition of growth at 10 µM [12]: 80%
- inhibition of growth at 10 µM [13]: 31%
- inhibition of growth at 10 µM [14]: 53%
- inhibition of growth at 10 µM [15]: 64%
- inhibition of growth at 10 µM [16]: 24%
- inhibition of growth at 10 µM [17]: 100%
- inhibition of growth at 10 µM [18]: 58%
- inhibition of growth at 10 µM [19]: 40%
- inhibition of growth at 10 µM [20]: 84%

SMILES: COc1ccc(C(=O)c2ccc3c(c2)Sc2ccccc2N3C)cc1F
- inhibition of growth at 10 µM [1]: 8%
- inhibition of growth at 10 µM [2]: 17%
- inhibition of growth at 10 µM [3]: 7%
- inhibition of growth at 10 µM [4]: 7%
- inhibition of growth at 10 µM [5]: 13%
- inhibition of growth at 10 µM [6]: 0%
- inhibition of growth at 10 µM [7]: 2%
- inhibition of growth at 10 µM [8]: 55%
- inhibition of growth at 10 µM [9]: 0%
- inhibition of growth at 10 µM [10]: 27%
- inhibition of growth at 10 µM [11]: 13%
- inhibition of growth at 10 µM [12]: 32%
- inhibition of growth at 10 µM [13]: 13%
- inhibition of growth at 10 µM [14]: 22%
- inhibition of growth at 10 µM [15]: 17%
- inhibition of growth at 10 µM [16]: 4%
- inhibition of growth at 10 µM [17]: 87%
- inhibition of growth at 10 µM [18]: 36%
- inhibition of growth at 10 µM [19]: 15%
- inhibition of growth at 10 µM [20]: 30%

SMILES: O=C(c1ccc2c(c1)Sc1ccccc1N2)c1c[nH]c2ccccc12
- inhibition of growth at 10 µM [1]: 43%
- inhibition of growth at 10 µM [2]: 94%
- inhibition of growth at 10 µM [3]: 100%
- inhibition of growth at 10 µM [4]: 71%
- inhibition of growth at 10 µM [5]: 89%
- GI50 [21]: 360 nM
- inhibition of growth at 10 µM [6]: 85%
- GI50 [22]: 876 nM
- inhibition of growth at 10 µM [7]: 45%
- GI50 [23]: 293 nM
- GI50 [24]: 556 nM
- GI50 [25]: 4110 nM
- inhibition of growth at 10 µM [8]: 100%
- GI50 [26]: 585 nM
- GI50 [27]: 408 nM
- GI50 [28]: 356 nM
- inhibition of growth at 10 µM [9]: 45%
- inhibition of growth at 10 µM [10]: 71%
- inhibition of growth at 10 µM [11]: 57%
- GI50 [29]: 314 nM
- inhibition of growth at 10 µM [12]: 100%
- GI50 [30]: 798 nM
- GI50 [31]: 510 nM
- GI50 [32]: 592 nM
- GI50 [33]: 358 nM
- inhibition of growth at 10 µM [13]: 54%
- GI50 [34]: 173 nM
- GI50 [35]: 428 nM
- GI50 [36]: 338 nM
- GI50 [37]: 98 nM
- inhibition of growth at 10 µM [14]: 66%
- GI50 [38]: 380 nM
- GI50 [39]: 510 nM
- GI50 [40]: 683 nM
- inhibition of growth at 10 µM [15]: 82%
- inhibition of growth at 10 µM [16]: 77%
- GI50 [41]: 642 nM
- GI50 [42]: 328 nM
- inhibition of growth at 10 µM [43]: 85%
- inhibition of growth at 10 µM [18]: 68%
- GI50 [44]: 398 nM
- GI50 [45]: 258 nM
- inhibition of growth at 10 µM [19]: 41%
- inhibition of growth at 10 µM [20]: 99%
